According to US20190298722A1, “USE OF AN INHIBITOR OF THE DE NOVO SYNTHESIS OF PURINES, IN THE TREATMENT OF ADENYLOSUCCINATE LYASE DEFICIENCY” (ASSISTANCE PUBLIQUE-HOPITAUX DE PARIS, priority 2016, published 2019):

Key:
Assay type in all cases: in vivo, human
[1] = tested on: patients with ADSL deficiency; experiment: Urinary assay of SAICAr and S-Adenosine by HPLC-MS/MS in patients treated with allopurinol; conditions: for urinary SAICAr: three children, allopurinol 200 mg/d
Procedure: (§1) SAICAr and S-Ado metabolites in urine were assayed using HPLC-DAD and HPLC coupled with tandem mass spectrometry (HPLC-MS/MS) according to the techniques recently described (Ceballos-Picot et al. 2015; Zikanova et al. 2014).
The patients received allopurinol daily by the oral route (200 mg/d).

[2] = tested on: patients with ADSL deficiency; experiment: Urinary assay of SAICAr and S-Ado by HPLC with UV detection (HPLC-DAD); conditions: 3 patients, after 6 and 12 months of treatment with allopurinol
Procedure: as §1

[3] = tested on: patients with ADSL deficiency; experiment: Conners scale (parents and teachers) during allopurinol treatment
Procedure: (§2) Clinical characterization of the patients was carried out before starting treatment (T1) in accordance with the ICD 10 classification, using standardized tools: • A semi-structured interview by means of the Autism Diagnostic Interview (ADI-R): this is a semi-structured interview intended to classify symptoms reported by parents in the domain of communication, social interaction, restricted and stereotyped behaviours or sensory issues. Scores are established for the current period and, if necessary, for the period when the difficulties were most serious, between the ages of 4 and 5 years. A score is established for each of the three domains based on responses provided by the parents and the judgement of the interviewer. Scores above the thresholds in the 3 domains support a diagnosis of autism, and in one or two domains support a diagnosis of a pervasive developmental disorder. Scores below the thresholds in the 3 domains make it possible to rule out diagnosis of an autism spectrum disorder if the ADI-R results converge with the clinical assessment of the child. • A semi-structured interview using the Vineland 2 scale: this is a semi-structured interview which makes it possible to assess the adaptive skills of the child in the domains of communication, daily life, social skills and motor skills. From the description of their child's daily living skills, equivalent developmental ages and standardized scores are calculated, making it possible to describe the developmental and adaptive profile of the child. • A developmental assessment using the Psychoeducational Profile (PEP 3): this is a direct assessment of the skills of the child in several domains of their development, particularly suited to children who display a developmental disability. Six domains of development are assessed: verbal and preverbal cognition (VPC), expressive language (EL), receptive language (RL), gross motor skills (GM), fine motor skills (FM) and visual-motor imitation (VMI). The results are expressed in terms of equivalent developmental age and emerging score, when the exercises are partially completed. The number of emerging skills, or the difference between the actual ages and the emerging scores, are evidence of the development potential of the children. • The Conners scale: this is an assessment scale intended to quantify the symptoms of inattentiveness, agitation, impulsiveness, anxiety, somatization, behavioural difficulties and learning difficulties. There are several versions of the questionnaire, one for parents, the other for teachers or professionals. The scoring makes it possible to obtain an overall standardized score, considered to be significant when it is greater than 1.5.
(§3) Clinical re-assessments were carried out 6 months and one year after treatment with allopurinol and compared to the first assessment in the absence of treatment with allopurinol. They comprised: • At 6 months: scoring of the Vineland and Conners scales • At 12 months: scoring of the Vineland and Conners scales and completion of PEP-3.
Clinical progress at 200 mg of allopurinol was measured for each child based on the Conner and Vineland scale scores before treatment (T1), at 6 months (T2) and at 12 months of treatment (T3) with regard to behaviour and function.

[4] = tested on: patients with ADSL deficiency; experiment: Psychoeducational Profile (PEP3) developmental assessment during allopurinol treatment
Procedure: as §2, §3
Developmental progress was measured by means of developmental ages on the PEP3 scale before treatment (T1) and after a year of treatment (T3).

[5] = patient P1, T2 (6 months) vs T1
[6] = patient P1, T3 (12 months) vs T1
[7] = patient P2, T2 (6 months) vs T1
[8] = patient P2, T3 (12 months) vs T1
[9] = patient P3, T2 (6 months) vs T1
[10] = patient P3, T3 (12 months) vs T1
[11] = Patient 1, T3 (12 months), T1 2.2
[12] = Patient 1, T3 (12 months), T1 1.7
[13] = Patient 2, T3 (12 months), T1 2.3
[14] = Patient 3, T3 (12 months), T1 1.4

O=c1ncnc2[nH][nH]cc1-2 [allopurinol, 1,2-dihydro-4H-pyrazolo[3,4-d]pyrimidin-4-one]
SAICAr, urine ([1]; patient P1, 6 months (T2) of allopurinol 200 mg/d oral, T1 37.7): 32.9 μmol/mmol creat
S-Adenosine, urine ([1]; patient P1, 6 months (T2) of allopurinol 200 mg/d oral, before treatment (T1) 55.4): 51.6 μmol/mmol creat
SAICAr, urine ([1]; patient P1, 12 months (T3) of allopurinol 200 mg/d oral, T1 37.7): 19.4 μmol/mmol creat
S-Adenosine, urine ([1]; patient P1, 12 months (T3) of allopurinol 200 mg/d oral, T1 55.4): 36.4 μmol/mmol creat
% variation S-Adenosine [1, 5]: −6.9%
% variation SAICAr [1, 5]: −12.7%
S-Ado/SAICAr ratio, urine ([1]; patient P1, T2 (6 months), T1 1.47): 1.57
% variation S-Adenosine [1, 6]: −34.3%
% variation SAICAr [1, 6]: −48.6%
S-Ado/SAICAr ratio, urine ([1]; patient P1, T3 (12 months), T1 1.47): 1.88
SAICAr, urine ([1]; patient P2, 6 months (T2) of allopurinol 200 mg/d oral, T1 95.4): 57.9 μmol/mmol creat
S-Adenosine, urine ([1]; patient P2, 6 months (T2) of allopurinol 200 mg/d oral, T1 116.3): 79.3 μmol/mmol creat
SAICAr, urine ([1]; patient P2, 12 months (T3) of allopurinol 200 mg/d oral, T1 95.4): 46.8 μmol/mmol creat
S-Adenosine, urine ([1]; patient P2, 12 months (T3) of allopurinol 200 mg/d oral, T1 116.3): 63.7 μmol/mmol creat
% variation S-Adenosine [1, 7]: −31.8%
% variation SAICAr [1, 7]: −39.3%
S-Ado/SAICAr ratio, urine ([1]; patient P2, T2 (6 months), T1 1.22): 1.37
% variation S-Adenosine [1, 8]: −45.2%
% variation SAICAr [1, 8]: −51.0%
S-Ado/SAICAr ratio, urine ([1]; patient P2, T3 (12 months), T1 1.22): 1.36
S-Adenosine, urine ([1]; patient P3, 6 months (T2) of allopurinol 200 mg/d oral, T1 148.6): 113.3 μmol/mmol creat
SAICAr, urine ([1]; patient P3, 6 months (T2) of allopurinol 200 mg/d oral, T1 167.9): 96.3 μmol/mmol creat
S-Adenosine, urine ([1]; patient P3, 12 months (T3) of allopurinol 200 mg/d oral, T1 148.6): 98.2 μmol/mmol creat
SAICAr, urine ([1]; patient P3, 12 months (T3) of allopurinol 200 mg/d oral, T1 167.9): 72.9 μmol/mmol creat
% variation S-Adenosine [1, 9]: −23.8%
% variation SAICAr [1, 9]: −42.7%
S-Ado/SAICAr ratio, urine ([1]; patient P3, T2 (6 months), T1 0.89): 1.18
% variation S-Adenosine [1, 10]: −33.9%
% variation SAICAr [1, 10]: −56.6%
S-Ado/SAICAr ratio, urine ([1]; patient P3, T3 (12 months), T1 0.89): 1.35
urinary SAICAr ([1]; after 6 and 12 months of treatment): significant reduction
urinary SAICAr ([1]; after 6 months): significant reduction
SAICAr and S-Ado in urine (HPLC-DAD) [2]: significant reduction
overall clinical outcome ([3]; 3 patients during treatment with allopurinol, more significant in the youngest patient (P3)): clinical improvement
Conners v-score, scale completed by the parents ([3]; 3 patients, T1, T2, T3): reduction in the v-score
scores on the Conners scale (parents and teachers) ([3]; 3 patients, during treatment): reduction
Conners score, Teachers ([3]; Patient 1, T2 (6 months), T1 2.2, significant when >1.5): 1.5
Conners score, Parents ([3]; Patient 1, T2 (6 months), T1 2.3): 1.6
Conners score, Teachers [3, 11]: 1
Conners score, Parents ([3]; Patient 1, T3 (12 months), T1 2.3): 1.8
Conners score, Parents ([3]; Patient 2, T2 (6 months), T1 1): 0.8
Conners score, Teachers ([3]; Patient 2, T2 (6 months), T1 2): 1.5
Conners score, Parents ([3]; Patient 2, T3 (12 months), T1 1): 0.5
Conners score, Teachers ([3]; Patient 2, T3 (12 months), T1 2): 1.4
Conners score, Parents ([3]; Patient 3, T2 (6 months), T1 1.7): 1.2
Conners score, Teachers ([3]; Patient 3, T2 (6 months), T1 1.9): 1.8
Conners score, Parents ([3]; Patient 3, T3 (12 months), T1 1.7): 1
Conners score, Teachers ([3]; Patient 3, T3 (12 months), T1 1.9): 1
hyperactivity reported by the parents and teachers ([3]; three children, allopurinol 200 mg/d): reduction in hyperactivity
behavioural disorders ([3]; three children, allopurinol 200 mg/d, after 6 and 12 months): substantial improvement
behavioural disorders assessed using the Conners and Vineland scales ([3]; three children, allopurinol 200 mg/d, after 6 months): substantial improvement
equivalent developmental ages ([4]; 3 patients, during treatment, rate remains slow with respect to chronological age): progression
PEP3 developmental age, EL (expressive language) [4, 12]: 1.8
PEP3 developmental age, RL (receptive language) [4, 12]: 2.3
PEP3 developmental age, GM [4, 11]: 2.8
PEP3 developmental age, FM ([4]; Patient 1, T3 (12 months), T1 2.5): 2.8
PEP3 developmental age, VPC (verbal and preverbal cognition) ([4]; Patient 1, T3 (12 months), T1 2.6, figures read as years.months per Table 2): 3
PEP3 developmental age, VMI (visual-motor imitation) ([4]; Patient 1, T3 (12 months), T1 2.8): 3.3
PEP3 developmental age, EL (expressive language) ([4]; Patient 2, T3 (12 months), T1 1.3): 1.7
PEP3 developmental age, RL (receptive language) ([4]; Patient 2, T3 (12 months), T1 1.8): 2.7
PEP3 developmental age, GM ([4]; Patient 2, T3 (12 months), T1 1.9): 3.3
PEP3 developmental age, FM [4, 13]: 4.0
PEP3 developmental age, VPC (verbal and preverbal cognition) [4, 13]: 2.3
PEP3 developmental age, VMI (visual-motor imitation) ([4]; Patient 2, T3 (12 months), T1 6): 6.0
PEP3 developmental age, EL (expressive language) [4, 14]: 2.3
PEP3 developmental age, GM [4, 14]: 3.4
PEP3 developmental age, RL (receptive language) ([4]; Patient 3, T3 (12 months), T1 1.5): 2
PEP3 developmental age, VPC (verbal and preverbal cognition) ([4]; Patient 3, T3 (12 months), T1 1.6): 2.4
PEP3 developmental age, FM ([4]; Patient 3, T3 (12 months), T1 2): 3.6
PEP3 developmental age, VMI (visual-motor imitation) ([4]; Patient 3, T3 (12 months), T1 2.1): 3.3
PEP3 developmental age, fine motor skills and receptive language ([4]; patient P2, T1 to T3): approximately a year
PEP3 developmental age, gross motor skills ([4]; patient P2, T1 to T3): improvement of more than a year
PEP3 developmental level, expressive language and preverbal and verbal cognition ([4]; patient P3, T1 to T3): gain of more than a year
